{"source": "patent US20230241014A1", "about": "“MEK-INHIBITORS FOR THE TREATMENT OR PREVENTION OF CORONAVIRUS INFECTIONS AND/OR COVID-19 CYTOKINE STORM” (priority 2020, published 2023)", "system": "VSV pseudotype virus carrying the SARS-CoV-2 Spike protein", "format": "cell-based", "data": [{"smiles": "O=C(NOCC1CC1)c1ccc(F)c(F)c1Nc1ccc(I)cc1Cl", "note": "[CI-1040, reference compound]", "values": [{"measurement": "internalization of the VSV pseudotype virus (GFP positive cells)", "value": "reduction in the internalization"}]}]}
